The source of these data is patent US8022099B2, “N-benzyl pyrrolidine derivatives” (Hoffmann-La Roche Inc., priority 2008, dated 2011).

For this test, the target named is T1, human NK3 receptor (Homo sapiens, UniProt P29371).
T1 construct: expressed in transfected cells; host or cells: HEK293 cells (transient expression), membrane preparation
T1 sequence (P29371 1-465): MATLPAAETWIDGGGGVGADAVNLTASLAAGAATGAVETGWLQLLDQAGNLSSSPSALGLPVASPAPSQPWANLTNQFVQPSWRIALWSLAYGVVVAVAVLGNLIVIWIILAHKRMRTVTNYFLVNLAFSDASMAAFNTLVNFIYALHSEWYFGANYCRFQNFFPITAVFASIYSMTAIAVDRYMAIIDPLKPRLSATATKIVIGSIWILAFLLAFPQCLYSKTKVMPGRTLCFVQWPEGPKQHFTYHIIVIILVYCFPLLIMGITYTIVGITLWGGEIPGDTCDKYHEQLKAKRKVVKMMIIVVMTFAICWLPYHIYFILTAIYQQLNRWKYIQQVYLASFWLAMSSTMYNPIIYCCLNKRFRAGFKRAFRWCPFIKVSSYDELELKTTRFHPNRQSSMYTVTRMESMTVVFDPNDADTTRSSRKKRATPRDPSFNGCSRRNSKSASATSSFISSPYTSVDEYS
The test can be described thus: [3H]SR142801 competition binding assay. Particulars: hNK3 receptor binding, [3H]SR142801, membranes from HEK293 cells transiently expressing recombinant human NK3 receptor. The protocol: [^3H]SR142801 Competition Binding Assay
hNK3 receptor binding experiment were performed using [^3H]SR142801 (Catalog No. TRK1035, specific activity: 74.0 Ci/mmol, Amersham, GE Healthcare UK limited, Buckinghamshire, UK) and membrane isolated from HEK293 cells transiently expressing recombinant human NK3 receptor. After thawing, the membrane homogenates were centrifuged at 48,000×g for 10 min at 4° C., the pellets were resuspended in the 50 mM Tris-HCl, 4 mM MnCl2, 1 μM phosphoramidon, 0.1% BSA binding buffer at pH 7.4 to a final assay concentration of 5 μg protein/well. For inhibition experiments, membranes were incubated with [^3H]SR142801 at a concentration equal to KD value of radioligand and 10 concentrations of the inhibitory compound (0.0003-10 μM) (in a total reaction volume of 500 μl) for 75 min at room temperature (RT). At the end of the incubation, membranes were filtered onto unitfilter (96-well white microplate with bonded GF/C filter preincubated 1 h in 0.3% PEI+0.3% BSA, Packard BioScience, Meriden, Conn.) with a Filtermate 196 harvester (Packard BioScience) and washed 4 times with ice-cold 50 mM Tris-HCl, pH 7.4 buffer. Nonspecific binding was measured in the presence of 10 μM SB222200 for both radioligands. The radioactivity on the filter was counted (5 min) on a Packard Top-count microplate scintillation counter with quenching correction after addition of 45 μl of microscint 40 (Canberra Packard S. A., Zürich, Switzerland) and shaking for 1 h. Inhibition curves were fitted according to the Hill equation: y=100/(1+(x/IC50)^nH), where nH=slope factor using Excel-fit 4 software (Microsoft). IC50 values were derived from the inhibition curve and the affinity constant (Ki) values were calculated using the Cheng-Prussoff equation Ki=IC50/(1+[L]/KD) where [L] is the concentration of radioligand and KD is its dissociation constant at the receptor, derived from the saturation isotherm. All experiments were performed in duplicate and the mean±standard error (SEM) of the individual Ki values was calculated.
As for `COCCCCC(=O)N1C[C@H](c2ccc(Cl)c(Cl)c2)[C@@H](N(C)Cc2ccc(C(F)(F)F)c(F)c2)C1` [Example 99, 1-{(3S,4R)-3-(3,4-Dichloro-phenyl)-4-[(3-fluoro-4-trifluoromethyl-benzyl)-methyl-amino]-pyrrolidin-1-yl}-5-methoxy-pentan-1-one], the Ki is 0.0366 µM.
To `CN(Cc1ccc(Cl)cc1)[C@H]1CN(C(=O)N2CCN(S(C)(=O)=O)CC2)C[C@@H]1c1ccc(Cl)cc1` (racemic) [Example 23, [(3RS,4SR)-3-[(4-Chloro-benzyl)-methyl-amino]-4-(4-chloro-phenyl)-pyrrolidin-1-yl]-(4-methanesulfonyl-piperazin-1-yl)-methanone] belongs 0.091 µM; to `CN(Cc1ccc(C(F)(F)F)c(F)c1)[C@H]1CN(C(=O)N2CCN(c3ccc(C#N)cn3)CC2)C[C@@H]1c1ccc(Cl)c(Cl)c1` (racemic) [Example 73, 6-(4-{(3SR,4RS)-3-(3,4-Dichloro-phenyl)-4-[(3-fluoro-4-trifluoromethyl-benzyl)-methyl-amino]-pyrrolidine-1-carbonyl}-piperazin-1-yl)-nicotinonitrile], 0.0019 µM.
On to `CN(C)CCNCC(=O)N1C[C@H](c2ccc(Cl)c(Cl)c2)[C@@H](N(C)Cc2ccc(C(F)(F)F)c(F)c2)C1` (racemic) [Example 124, 1-{(3SR,4RS)-3-(3,4-Dichloro-phenyl)-4-[(3-fluoro-4-trifluoromethyl-benzyl)-methyl-amino]-pyrrolidin-1-yl}-2-(2-dimethylamino-ethylamino)-ethanone], for which the Ki came out at 0.0964 µM.
As for `CN(Cc1ccc(C(F)(F)F)c(F)c1)[C@H]1CN(C(=O)CCCCN2CCNCC2)C[C@@H]1c1ccc(Cl)c(Cl)c1` (racemic) [Example 88, 1-{(3SR,4RS)-3-(3,4-Dichloro-phenyl)-4-[(3-fluoro-4-trifluoromethyl-benzyl)-methyl-amino]-pyrrolidin-1-yl}-5-piperazin-1-yl-pentan-1-one], the figure is 0.0247 µM; as for `CN(Cc1ccc(C(F)(F)F)c(F)c1)[C@H]1CN(C(=O)CN2CCC(N(C)S(C)(=O)=O)CC2)C[C@@H]1c1ccc(Cl)c(Cl)c1` (racemic) [Example 144, N-[1-(2-{(3SR,4RS)-3-(3,4-Dichloro-phenyl)-4-[(3-fluoro-4-trifluoromethyl-benzyl)-methyl-amino]-pyrrolidin-1-yl}-2-oxo-ethyl)-piperidin-4-yl]-N-methyl-methanesulfonamide], 0.0059 µM.
To `CN(Cc1ccc(C(F)(F)F)c(F)c1)[C@H]1CN(C(=O)CN2CCC(NS(C)(=O)=O)CC2)C[C@@H]1c1ccc(Cl)c(Cl)c1` (racemic) [Example 143, N-[1-(2-{(3SR,4RS)-3-(3,4-Dichloro-phenyl)-4-[(3-fluoro-4-trifluoromethyl-benzyl)-methyl-amino]-pyrrolidin-1-yl}-2-oxo-ethyl)-piperidin-4-yl]-methanesulfonamide] belongs 0.012 µM; to `CN(Cc1ccc2cc[nH]c2c1)[C@H]1CN(C(=O)N2CCN(S(C)(=O)=O)CC2)C[C@@H]1c1ccc(Cl)c(Cl)c1` (racemic) [Example 47, {(3SR,4RS)-3-(3,4-Dichloro-phenyl)-4-[(1H-indol-6-ylmethyl)-methyl-amino]-pyrrolidin-1-yl}-(4-methanesulfonyl-piperazin-1-yl)-methanone], 0.0691 µM; to `CN(Cc1ccc(C(F)(F)F)cc1)[C@H]1CN(C(=O)CCCCN2CCOCC2)C[C@@H]1c1ccc(Cl)c(Cl)c1` (racemic) [Example 84, 1-{(3SR,4RS)-3-(3,4-Dichloro-phenyl)-4-[methyl-(4-trifluoromethyl-benzyl)-amino]-pyrrolidin-1-yl}-5-morpholin-4-yl-pentan-1-one], 0.0155 µM.
To `C[C@@H]1CN(C(=O)N2C[C@H](c3ccc(Cl)c(Cl)c3)[C@@H](N(C)Cc3ccc(C(F)(F)F)c(F)c3)C2)CCN1S(C)(=O)=O` (mixture of isomers) [Example 60, {(3SR,4RS)-3-(3,4-Dichloro-phenyl)-4-[(3-fluoro-4-trifluoromethyl-benzyl)-methyl-amino]-pyrrolidin-1-yl}-((R)-4-methanesulfonyl-3-methyl-piperazin-1-yl)-methanone] belongs 0.0036 µM.
